Measured values: ChEMBL document CHEMBL3407472, “Multi-parameter optimization of aza-follow-ups to BI 207524, a thumb pocket 1 HCV NS5B polymerase inhibitor. Part 2: Impact of lipophilicity on promiscuity and in vivo toxicity” (Bioorg Med Chem Lett, 2015)
Blank lines part the entries; values can stand above or below the molecule they belong to.

How the values were obtained:
[1] = Half life in human liver microsomes at 2 uM; type: ADME
[2] = Permeability from apical to basolateral side of human Caco2 cells; type: ADME, cell-based; conditions: Caco-2, read-out: permeability
[3] = test system: Hepatitis C virus; experiment: Antiviral activity against Hepatitis C virus genotype 1a infected in human Huh cells assessed as inhibition of viral replication by RT-PCR-based replicon assay; type: functional, cell-based, Hepacivirus hominis; conditions: subtype 1a
[4] = test system: Hepatitis C virus; experiment: Antiviral activity against Hepatitis C virus genotype 1b infected in human Huh cells assessed as inhibition of viral replication by RT-PCR-based replicon assay; type: functional, cell-based, Hepacivirus hominis
[5] = Lipophilicity, log D of the compound at pH 7.4; type: physicochemical; conditions: buffer
[6] = AUC in dog at 5 mg/kg, po and 2 mg/kg, iv; type: ADME, organism-based, Canis lupus familiaris; conditions: plasma
[7] = Clearance in dog at 5 mg/kg, po and 2 mg/kg, iv; type: ADME, organism-based, Canis lupus familiaris; conditions: in vivo
[8] = Cmax in dog at 5 mg/kg, po and 2 mg/kg, iv; type: ADME, organism-based, Canis lupus familiaris; conditions: in vivo
[9] = Bioavailability in cynomolgous monkey at 5 mg/kg, po and 2 mg/kg, iv; type: ADME, organism-based, Macaca fascicularis; conditions: cynomolgus monkey, in vivo
[10] = Clearance in cynomolgous monkey at 5 mg/kg, po and 2 mg/kg, iv; type: ADME, organism-based, Macaca fascicularis; conditions: cynomolgus monkey, in vivo
[11] = AUC in rat at 5 mg/kg, po and 2 mg/kg, iv; type: ADME, organism-based; conditions: plasma
[12] = AUC in cynomolgous monkey at 5 mg/kg, po and 2 mg/kg, iv; type: ADME, organism-based, Macaca fascicularis; conditions: cynomolgus monkey, plasma
[13] = Bioavailability in rat at 5 mg/kg, po and 2 mg/kg, iv; type: ADME, organism-based; conditions: in vivo
[14] = Half life in rat at 5 mg/kg, po and 2 mg/kg, iv; type: ADME, organism-based; conditions: in vivo
[15] = Cmax in rat at 5 mg/kg, po and 2 mg/kg, iv; type: ADME, organism-based; conditions: in vivo
[16] = Half life in cynomolgous monkey at 5 mg/kg, po and 2 mg/kg, iv; type: ADME, organism-based, Macaca fascicularis; conditions: cynomolgus monkey, in vivo
[17] = Half life in rat liver microsomes at 2 uM; type: ADME
[18] = Half life in cynomolgous monkey liver microsomes at 2 uM; type: ADME, Macaca fascicularis; conditions: cynomolgus monkey
[19] = Clearance in rat at 5 mg/kg, po and 2 mg/kg, iv; type: ADME, organism-based; conditions: in vivo
[20] = target: Voltage-gated inwardly rectifying potassium channel KCNH2 (Homo sapiens, UniProt Q12809); experiment: Inhibition of human ERG channel
[21] = Cmax in cynomolgous monkey at 5 mg/kg, po and 2 mg/kg, iv; type: ADME, organism-based, Macaca fascicularis; conditions: cynomolgus monkey, in vivo
[22] = Half life in dog liver microsomes at 2 uM; type: ADME, Canis lupus familiaris
[23] = Volume of distribution at steady state in rat at 5 mg/kg, po and 2 mg/kg, iv; type: ADME, organism-based; conditions: in vivo, read-out: Vdss
[24] = Volume of distribution at steady state in cynomolgous monkey at 5 mg/kg, po and 2 mg/kg, iv; type: ADME, organism-based, Macaca fascicularis; conditions: cynomolgus monkey, in vivo, read-out: Vdss
[25] = Half life in dog at 5 mg/kg, po and 2 mg/kg, iv; type: ADME, organism-based, Canis lupus familiaris; conditions: in vivo
[26] = Bioavailability in dog at 5 mg/kg, po and 2 mg/kg, iv; type: ADME, organism-based, Canis lupus familiaris; conditions: in vivo
[27] = Volume of distribution at steady state in dog at 5 mg/kg, po and 2 mg/kg, iv; type: ADME, organism-based, Canis lupus familiaris; conditions: in vivo, read-out: Vdss
[28] = Ratio of drug uptake in liver to plasma of rat at 5 mg/kg, po and 2 mg/kg, iv after 6 to 8 hrs; type: ADME, organism-based
[29] = Plasma concentration in rat at 2 mg/kg, po each in 0.5% Methylcellulose and 0.3% Tween-80 and 1% N-methylpyrrolidone after 2 hrs; type: ADME, organism-based; set-up: dose 2 mg/kg, route oral
[30] = Plasma concentration in rat at 2 mg/kg, po each in 0.5% Methylcellulose and 0.3% Tween-80 and 1% N-methylpyrrolidone after 1 hr; type: ADME, organism-based; set-up: dose 2 mg/kg, route oral
[31] = Lipophilicity, log D of the compound; type: physicochemical; conditions: octanol/water
[32] = target: 5-hydroxytryptamine receptor 2A (Homo sapiens, UniProt P28223); experiment: Inhibition of serotonin 5-HT2A receptor (unknown origin)
[33] = Cmax in rat at 2 mg/kg, po each in 0.5% Methylcellulose and 0.3% Tween-80 and 1% N-methylpyrrolidone; type: ADME, organism-based; set-up: dose 2 mg/kg, route oral; conditions: in vivo

5-hydroxytryptamine receptor 2A, sequence (P28223 whole entry): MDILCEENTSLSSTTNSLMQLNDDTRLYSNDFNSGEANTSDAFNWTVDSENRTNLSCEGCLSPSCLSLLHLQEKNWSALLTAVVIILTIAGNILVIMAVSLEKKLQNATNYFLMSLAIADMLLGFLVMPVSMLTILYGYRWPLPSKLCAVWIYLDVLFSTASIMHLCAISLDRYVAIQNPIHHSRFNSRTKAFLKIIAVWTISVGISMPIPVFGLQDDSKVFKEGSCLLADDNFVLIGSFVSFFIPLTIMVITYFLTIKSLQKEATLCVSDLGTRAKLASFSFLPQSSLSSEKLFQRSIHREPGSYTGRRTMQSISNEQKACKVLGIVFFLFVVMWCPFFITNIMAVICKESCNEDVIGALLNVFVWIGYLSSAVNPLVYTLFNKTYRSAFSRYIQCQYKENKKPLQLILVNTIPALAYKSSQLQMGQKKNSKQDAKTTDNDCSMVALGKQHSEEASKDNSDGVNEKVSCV
Voltage-gated inwardly rectifying potassium channel KCNH2, sequence (Q12809 whole entry): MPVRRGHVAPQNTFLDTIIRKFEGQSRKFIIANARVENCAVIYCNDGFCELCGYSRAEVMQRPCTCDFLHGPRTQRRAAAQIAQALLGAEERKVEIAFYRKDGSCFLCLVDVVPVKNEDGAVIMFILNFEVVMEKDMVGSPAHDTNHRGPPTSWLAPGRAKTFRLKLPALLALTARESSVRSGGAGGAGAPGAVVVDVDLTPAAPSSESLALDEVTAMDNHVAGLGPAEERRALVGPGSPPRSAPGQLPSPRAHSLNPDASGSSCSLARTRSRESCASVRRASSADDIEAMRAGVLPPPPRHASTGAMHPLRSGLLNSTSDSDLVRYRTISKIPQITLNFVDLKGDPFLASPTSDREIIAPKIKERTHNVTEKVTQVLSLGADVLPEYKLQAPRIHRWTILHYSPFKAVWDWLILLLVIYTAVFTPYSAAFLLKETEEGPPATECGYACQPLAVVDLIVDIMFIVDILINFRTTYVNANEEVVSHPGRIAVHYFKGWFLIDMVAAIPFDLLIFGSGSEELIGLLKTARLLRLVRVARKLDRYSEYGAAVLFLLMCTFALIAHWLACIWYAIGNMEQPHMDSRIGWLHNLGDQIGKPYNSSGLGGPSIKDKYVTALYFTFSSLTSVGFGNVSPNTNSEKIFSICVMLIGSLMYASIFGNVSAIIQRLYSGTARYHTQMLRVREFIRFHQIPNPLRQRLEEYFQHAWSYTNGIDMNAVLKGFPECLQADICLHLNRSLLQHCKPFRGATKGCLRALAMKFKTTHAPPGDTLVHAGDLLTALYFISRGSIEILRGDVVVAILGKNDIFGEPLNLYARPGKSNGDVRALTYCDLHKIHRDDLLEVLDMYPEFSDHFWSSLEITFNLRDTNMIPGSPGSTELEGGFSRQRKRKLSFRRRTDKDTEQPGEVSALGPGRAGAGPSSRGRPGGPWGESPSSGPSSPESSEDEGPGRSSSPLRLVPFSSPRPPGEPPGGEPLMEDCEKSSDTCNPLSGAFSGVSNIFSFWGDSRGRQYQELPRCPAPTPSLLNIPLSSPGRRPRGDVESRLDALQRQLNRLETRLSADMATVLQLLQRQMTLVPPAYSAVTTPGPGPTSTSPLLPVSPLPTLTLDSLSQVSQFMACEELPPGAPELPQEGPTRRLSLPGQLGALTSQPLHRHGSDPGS

Compound: CCOc1nc(NC(=O)C2(NC(=O)c3ccc4c(C5CCCC5)c(-c5ncc(Cl)cn5)n(C)c4c3)CCC2)ccc1/C=C/C(=O)O
- half-life at 2 µM [1]: 1.1 h
- Papp A→B [2]: 15 ×10⁻⁶ cm/s
- EC50 [3]: 24 nM
- EC50 [4]: 13 nM
- logD [5]: > 5.9

Compound: CCOc1nc(NC(=O)C2(NC(=O)c3ccc4c(C5CCCC5)c(-c5ccc(Cl)cn5)n(C)c4c3)CCC2)ccc1/C=C/C(=O)O
- half-life at 2 µM [1]: 2.78 h
- Papp A→B [2]: 15 ×10⁻⁶ cm/s
- EC50 [3]: 40 nM
- EC50 [4]: 13 nM

Compound: CCOc1nc(NC(=O)C2(NC(=O)c3ccc4c(C5CCCC5)c(-c5cncnc5)n(C)c4c3)CCC2)ccc1/C=C/C(=O)O
- half-life at 2 µM [1]: 1.02 h
- Papp A→B [2]: 17 ×10⁻⁶ cm/s
- EC50 [4]: 15 nM
- logD [5]: 3.4

Compound: CCOc1nc(NC(=O)C2(NC(=O)c3ccc4c(C5CCCC5)c(-c5ccccn5)n(C)c4c3)CCC2)cnc1/C=C/C(=O)O
- half-life at 2 µM [1]: 1.78 h
- concentration at 2 h [29]: 200 nM
- EC50 [4]: 13 nM
- concentration at 1 h [30]: 500 nM
- half-life at 2 µM [17]: 0.617 h
- logD [31]: 3.1
- logD [5]: 3.1

Compound: CCOc1nc(NC(=O)C(C)(C)NC(=O)c2ccc3c(c2)c(C)c(-c2ccc(F)cn2)n3C2CCCCC2)cnc1/C=C/C(=O)O
- half-life at 2 µM [1]: 1.57 h
- concentration at 2 h [29]: 100 nM
- EC50 [4]: 12 nM
- concentration at 1 h [30]: 300 nM
- half-life at 2 µM [17]: 1.28 h

Compound: COc1nc(NC(=O)C2(NC(=O)c3ccc4c(C5CCCC5)c(-c5ccccn5)n(C)c4c3)CCC2)ccc1/C=C/C(=O)O
- half-life at 2 µM [1]: 1.27 h
- EC50 [4]: 15 nM
- half-life at 2 µM [17]: 0.167 h
- logD [31]: 3.5
- logD [5]: 3.5

Compound: COc1nc(NC(=O)C2(NC(=O)c3ccc4c(C5CCCC5)c(-c5ccc(F)cn5)n(C)c4c3)CCC2)ccc1/C=C/C(=O)O
- EC50 [3]: 68 nM
- EC50 [4]: 12 nM
- logD [5]: 4

Compound: COc1nc(NC(=O)C2(NC(=O)c3ccc4c(C5CCCC5)c(-c5cnccn5)n(C)c4c3)CCC2)ccc1/C=C/C(=O)O
- EC50 [3]: 46 nM
- EC50 [4]: 13 nM
- logD [5]: 3.3

Compound: COc1nc(NC(=O)C2(NC(=O)c3ccc4c(c3)c(C)c(-c3ccc(F)cn3)n4C3CCCCC3)CCC2)cnc1/C=C/C(=O)O
- EC50 [3]: 310 nM
- EC50 [4]: 17 nM
- logD [5]: 3.3

Compound: COc1nc(NC(=O)C(C)(C)NC(=O)c2ccc3c(C4CCCC4)c(-c4ccc(F)cn4)n(C)c3c2)ccc1/C=C/C(=O)O
- EC50 [3]: 67 nM
- EC50 [4]: 12 nM
- logD [5]: 3.3

Compound: COc1nc(NC(=O)C(C)(C)NC(=O)c2ccc3c(C4CCCC4)c(-c4cncnc4)n(C)c3c2)ccc1/C=C/C(=O)O
- EC50 [3]: 72 nM
- EC50 [4]: 23 nM
- logD [5]: 2.2

Compound: COc1nc(NC(=O)C(C)(C)NC(=O)c2ccc3c(C4CCCC4)c(-c4ncc(Cl)cn4)n(C)c3c2)cnc1/C=C/C(=O)O
- EC50 [3]: 270 nM
- EC50 [4]: 17 nM
- logD [5]: 2.6

Compound: COc1nc(NC(=O)C2(NC(=O)c3ccc4c(c3)c(C)c(-c3ccc(F)cn3)n4C3CCCCC3)CCCC2)cnc1/C=C/C(=O)O
- EC50 [3]: 54 nM
- EC50 [4]: 14 nM
- logD [5]: 3.2

More lines, main results first:

- EC50 [3]: 63 nM
- EC50 [4]: 12 nM
- logD [5]: 3.1
Compound: CCOc1nc(NC(=O)C2(NC(=O)c3ccc4c(c3)c(C)c(-c3ccc(F)cn3)n4C3CCCCC3)CCC2)cnc1/C=C/C(=O)O

- half-life at 2 µM [1]: 0.667 h
- Papp A→B [2]: 21 ×10⁻⁶ cm/s
- EC50 [4]: 11 nM
- logD [5]: 4.4
Compound: CCOc1nc(NC(=O)C2(NC(=O)c3ccc4c(C5CCCC5)c(-c5ccccn5)n(C)c4c3)CCC2)ccc1/C=C/C(=O)O

- AUC [6]: 48 µM·h
- clearance [7]: 1.9 mL/min/kg
- Cmax [8]: 8600 nM
- bioavailability [9]: 44%
- clearance [10]: 4.6 mL/min/kg
- AUC [11]: 11 µM·h
- half-life at 2 µM [1]: 1.37 h
- AUC [12]: 12 µM·h
- bioavailability [13]: 44%
- Papp A→B [2]: 14 ×10⁻⁶ cm/s
- half-life [14]: 2.1 h
- EC50 [3]: 24 nM
- EC50 [4]: 10 nM
- Cmax [15]: 5000 nM
- half-life [16]: 2.3 h
- half-life at 2 µM [17]: 0.95 h
- half-life at 2 µM [18]: 0.433 h
- clearance [19]: 4.9 mL/min/kg
- logD [5]: > 4.7
- Cmax [21]: 3800 nM
- half-life at 2 µM [22]: 2.52 h
- Vd [23]: 0.44 L/kg
- Vd [24]: 0.47 L/kg
- half-life [25]: 5.1 h
- bioavailability [26]: 61%
- Vd [27]: 0.36 L/kg
- Kp [28]: 6
Compound: CCOc1nc(NC(=O)C2(NC(=O)c3ccc4c(C5CCCC5)c(-c5ccc(F)cn5)n(C)c4c3)CCC2)ccc1/C=C/C(=O)O
- IC50 [20]: 2100 nM

- half-life at 2 µM [1]: 0.55 h
- Papp A→B [2]: 13 ×10⁻⁶ cm/s
- EC50 [4]: 8 nM
- logD [5]: 3.6
Compound: CCOc1nc(NC(=O)C2(NC(=O)c3ccc4c(C5CCCC5)c(-c5cnccn5)n(C)c4c3)CCC2)ccc1/C=C/C(=O)O

- EC50 [3]: 7 nM
- EC50 [4]: 6 nM
- logD [5]: 4
Compound: CCOc1nc(NC(=O)C(C)(C)NC(=O)c2ccc3c(C4CCCC4)c(-c4ncc(Cl)cn4)n(C)c3c2)ccc1/C=C/C(=O)O

- half-life at 2 µM [1]: 1.15 h
- concentration at 2 h [29]: 100 nM
- EC50 [4]: 12 nM
- concentration at 1 h [30]: 200 nM
- half-life at 2 µM [17]: 1.27 h
- logD [31]: 3
- logD [5]: 3
Compound: CCOc1nc(NC(=O)C(C)(C)NC(=O)c2ccc3c(C4CCCC4)c(-c4cncnc4)n(C)c3c2)ccc1/C=C/C(=O)O

- half-life at 2 µM [1]: 2.3 h
- EC50 [3]: 21 nM
- EC50 [4]: 12 nM
- half-life at 2 µM [17]: 1.82 h
- logD [31]: 3.3
- logD [5]: 3.3
- IC50 [32]: 5200 nM
- Cmax [33]: 900 nM
Compound: CCOc1nc(NC(=O)C(C)(C)NC(=O)c2ccc3c(C4CCCC4)c(-c4ncc(Cl)cn4)n(C)c3c2)cnc1/C=C/C(=O)O

- half-life at 2 µM [1]: 4.6 h
- concentration at 2 h [29]: 660 nM
- EC50 [4]: 6 nM
- half-life at 2 µM [17]: > 5 h
- logD [31]: 2.6
- logD [5]: 2.6
- Cmax [33]: 660 nM
Compound: CCOc1nc(NC(=O)C(C)(C)NC(=O)c2ccc3c(C4CCCC4)c(-c4ccc(Cl)cn4)n(C)c3c2)cnc1/C=C/C(=O)O

- half-life at 2 µM [1]: 1.33 h
- concentration at 2 h [29]: 100 nM
- EC50 [3]: 13 nM
- EC50 [4]: 5 nM
- concentration at 1 h [30]: 400 nM
- half-life at 2 µM [17]: > 5 h
- logD [31]: 3.2
- logD [5]: 3.2
Compound: CCOc1nc(NC(=O)C2(NC(=O)c3ccc4c(C5CCCC5)c(-c5cnccn5)n(C)c4c3)CCCC2)cnc1/C=C/C(=O)O

- EC50 [3]: 62 nM
- EC50 [4]: 9 nM
- logD [5]: 3.7
Compound: COc1nc(NC(=O)C2(NC(=O)c3ccc4c(C5CCCC5)c(-c5ncc(Cl)cn5)n(C)c4c3)CCC2)ccc1/C=C/C(=O)O

- EC50 [3]: 52 nM
- EC50 [4]: 10 nM
- logD [5]: 4.2
Compound: COc1nc(NC(=O)C2(NC(=O)c3ccc4c(c3)c(C)c(-c3ccc(F)cn3)n4C3CCCCC3)CCC2)ccc1/C=C/C(=O)O
